Laboratory results from the supplement of paper PMC8612539.
≈ marks a conversion by molar mass, not a printed value.

Tested on: Histophilus somni
Assay: minimum inhibitory concentration (MIC)
Protocol: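 Broth microdilution MIC (Sensititre BOPO7F bovine plate, CLSI methods) of 19 antimicrobials against field isolates of P. multocida, M. haemolytica, H. somni (deep nasopharyngeal swabs) and E. coli, Enterococcus spp. (rectal swabs) from weaned dairy heifers. Incubation 16-24 h at 35 C. MIC is the lowest concentration preventing visible growth. Values with <= or > lie at the tested range limits. Trimethoprim-sulfamethoxazole is given as the trimethoprim component of a 1:19 mixture.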

NC[C@@H]1O[C@H](O[C@H]2[C@@H](O)[C@H](O[C@@H]3[C@@H](O)[C@H](N)C[C@H](N)[C@H]3O[C@H]3O[C@H](CN)[C@@H](O)[C@H](O)[C@H]3N)O[C@@H]2CO)[C@H](N)[C@@H](O)[C@@H]1O [Neomycin]
Details	minimum inhibitory concentration [µg/mL]
isolate (source animal id): 3	32 (≈ 52.1 µM)
isolate (source animal id): 4	32 (≈ 52.1 µM)
isolate (source animal id): 7	16 (≈ 26 µM)
isolate (source animal id): 14	16 (≈ 26 µM)
isolate (source animal id): 15	32 (≈ 52.1 µM)
isolate (source animal id): 17	16 (≈ 26 µM)
isolate (source animal id): 18	32 (≈ 52.1 µM)
isolate (source animal id): 20	≤ 4
isolate (source animal id): 23	32 (≈ 52.1 µM)
isolate (source animal id): 45	32 (≈ 52.1 µM)
isolate (source animal id): 53	32 (≈ 52.1 µM)
isolate (source animal id): 83	32 (≈ 52.1 µM)
isolate (source animal id): 88	32 (≈ 52.1 µM)
isolate (source animal id): 92	> 32
isolate (source animal id): 93	8 (≈ 13 µM)
isolate (source animal id): 99	> 32
isolate (source animal id): 100	> 32
isolate (source animal id): 105	32 (≈ 52.1 µM)
isolate (source animal id): 107	> 32
isolate (source animal id): 108	> 32
isolate (source animal id): 109	> 32
isolate (source animal id): 110	> 32
isolate (source animal id): 117	16 (≈ 26 µM)
isolate (source animal id): 121	16 (≈ 26 µM)
isolate (source animal id): 123	32 (≈ 52.1 µM)
isolate (source animal id): 124	32 (≈ 52.1 µM)
isolate (source animal id): 127	32 (≈ 52.1 µM)
isolate (source animal id): 128	16 (≈ 26 µM)
isolate (source animal id): 130	16 (≈ 26 µM)
isolate (source animal id): 132	16 (≈ 26 µM)
isolate (source animal id): 135	16 (≈ 26 µM)
isolate (source animal id): 140	16 (≈ 26 µM)
isolate (source animal id): 141	16 (≈ 26 µM)
isolate (source animal id): 142	> 32
isolate (source animal id): 144	> 32
isolate (source animal id): 146	> 32
isolate (source animal id): 147	> 32
isolate (source animal id): 151	32 (≈ 52.1 µM)
isolate (source animal id): 153	> 32
isolate (source animal id): 154	> 32
isolate (source animal id): 156	32 (≈ 52.1 µM)
isolate (source animal id): 157	> 32
isolate (source animal id): 176	32 (≈ 52.1 µM)
isolate (source animal id): 183	32 (≈ 52.1 µM)
isolate (source animal id): 186	> 32
isolate (source animal id): 196	> 32
isolate (source animal id): 198	> 32
isolate (source animal id): 200	> 32
isolate (source animal id): 206	> 32
isolate (source animal id): 208	> 32
isolate (source animal id): 210	> 32
isolate (source animal id): 212	32 (≈ 52.1 µM)
isolate (source animal id): 215	> 32
isolate (source animal id): 216	> 32
isolate (source animal id): 218	> 32
isolate (source animal id): 219	> 32
isolate (source animal id): 224	> 32
isolate (source animal id): 228	32 (≈ 52.1 µM)
isolate (source animal id): 230	32 (≈ 52.1 µM)
isolate (source animal id): 233	> 32
isolate (source animal id): 238	16 (≈ 26 µM)
isolate (source animal id): 239	32 (≈ 52.1 µM)
isolate (source animal id): 241	32 (≈ 52.1 µM)
isolate (source animal id): 242	32 (≈ 52.1 µM)
isolate (source animal id): 243	32 (≈ 52.1 µM)
isolate (source animal id): 245	> 32
isolate (source animal id): 246	32 (≈ 52.1 µM)
isolate (source animal id): 247	32 (≈ 52.1 µM)
isolate (source animal id): 248	≤ 4
isolate (source animal id): 250	32 (≈ 52.1 µM)
isolate (source animal id): 251	32 (≈ 52.1 µM)
isolate (source animal id): 252	32 (≈ 52.1 µM)
isolate (source animal id): 254	32 (≈ 52.1 µM)
isolate (source animal id): 258	> 32
isolate (source animal id): 259	> 32
isolate (source animal id): 262	32 (≈ 52.1 µM)
isolate (source animal id): 264	8 (≈ 13 µM)
isolate (source animal id): 265	> 32
isolate (source animal id): 266	> 32
isolate (source animal id): 267	> 32
isolate (source animal id): 269	> 32
isolate (source animal id): 271	> 32
isolate (source animal id): 272	> 32
isolate (source animal id): 274	32 (≈ 52.1 µM)
isolate (source animal id): 276	≤ 4
isolate (source animal id): 278	> 32
isolate (source animal id): 280	> 32
isolate (source animal id): 281	> 32
isolate (source animal id): 283	> 32
isolate (source animal id): 288	> 32
isolate (source animal id): 291	32 (≈ 52.1 µM)
isolate (source animal id): 292	> 32
isolate (source animal id): 296	> 32
isolate (source animal id): 306	> 32
isolate (source animal id): 336	> 32
isolate (source animal id): 337	> 32
isolate (source animal id): 341	> 32
